{
  "source": "patent US20140080795A1",
  "about": "“NRF2 Deficiency Influences Susceptibility to Steroid Resistance via HDAC2 Reduction” (University of Rochester, priority 2010, published 2014)",
  "key": {"[1]": {"tested_on": "KC", "assay": "LPS-induced lung inflammation in mice: KC levels in lung homogenates by ELISA", "type": "in vivo, mouse"}, "[2]": {"tested_on": "MCP-1", "assay": "LPS-induced lung inflammation in mice: MCP-1 levels in lung tissue by ELISA", "type": "in vivo, mouse", "details": "Nrf2-/- mice, budesonide 1 and 3 mg/kg pretreatment", "protocol": "Briefly, age-matched WT, Nrf2−/− and HDAC2−/− were exposed to aerosolized Escherichia coli LPS (1 mg/ml) for 8 minutes. Aerosolized saline-exposed mice were used as controls, and animals were sacrificed at 24 h post last exposure. […] Monocyte chemotactic protein 1 (MCP-1) levels were measured from mouse lung soluble protein by enzyme-linked immunosorbent assay (ELISA) with the duo-antibody kit (R & D Systems). Results were normalized to protein concentration per sample. […] Briefly, age-matched wild-type, Nrf2−/− and HDAC2−/− were exposed to aerosolized Escherichia coli LPS diluted to 1 mg/ml for 8 minutes. Aerosolized saline-exposed mice were used as controls and animals were sacrificed at 24 h post last exposure (Yao et al., Am J Respir Cell Mol Biol 39: 7-18 (2008)). […] Monocyte chemotactic protein 1 (MCP-1) levels were measured from mouse lung soluble protein by enzyme-linked immunosorbent assay (ELISA) with the MCP-1 duo-antibody kit (R & D Systems). Results were normalized to protein concentration per sample."}},
  "data": [
    {"compound": "CCCC1O[C@@H]2C[C@H]3[C@@H]4CCC5=CC(=O)C=C[C@]5(C)[C@H]4[C@@H](O)C[C@]3(C)[C@]2(C(=O)CO)O1", "note": "(stereo partly drawn) [budesonide]", "values": [
      {"measurement": "KC release in lung", "setting": "[1]; HDAC2-/- mice, budesonide 3 mg/kg pretreatment", "value": "no significant effect"},
      {"measurement": "LPS-induced release of KC in lung", "setting": "[1]; Nrf2-/- mice, budesonide 1 and 3 mg/kg pretreatment", "value": "no inhibitory effect"},
      {"measurement": "LPS-induced release of MCP-1 in lung", "setting": "[2]", "value": "no inhibitory effect"}
    ]}
  ]
}
